According to patent publication US20230190760A1, “ADVANTAGEOUS THERAPIES FOR DISORDERS MEDIATED BY IKAROS OR AIOLOS” (C4 Therapeutics, Inc., priority 2020, published 2023):

Columns and labels:
[1] = target: T1, Sal-like protein 4 (SALL4) (Homo sapiens, UniProt Q96SW2+Q9UJQ4); assay: SALL4 degradation in KELLY neuroblastoma cell line; format: cell-based; details: at 10 nM
T1 construct: endogenous in cells; host or cells: KELLY neuroblastoma cell line
Procedure: Specific studies were carried out to assess the ability of Compound 1 to degrade Sal-like protein 4 (SALL4), a protein implicated in the teratogenicity induced by the IMiD®s class of IKZF1/IKZF3 degraders.

[2] = system: Interferon-response proteins in DL-40 ALCL xenograft tumors; assay: Global proteomics and gene ontology of DL-40 ALCL xenograft tumors, 48 hours after dose; format: in vivo, mice; design: Log2 vs Vehicle, 0AS1: dose or concentration left out as unconfirmed
Procedure: […] Gene ontology analysis was done by using BINGO, a Java-based tool that is implemented as a plugin for Cytoscape. Default settings were used to assess the overexpression of GO categories and the interactions among altered proteins were determined using the STRING database, with a cutoff score of 700.

[3] = system: KIJK; assay: Anti-proliferative activity, 96 hours
[4] = system: OPM-2; assay: Anti-proliferative activity, 96 hours; details: Homo sapiens, OPM-2, 96 h
[5] = system: 87 potential unintended molecular targets; assay: In vitro binding or activity against 87 potential unintended molecular targets; details: 100 nM, 500× the free plasma exposure (Cmax) of maximum in vivo efficacy
[6] = system: OCI-LY10; assay: Anti-proliferative activity, 96 hours; details: Homo sapiens, OCI-Ly10, 96 h

T1 sequence (Q9UJQ4 whole entry): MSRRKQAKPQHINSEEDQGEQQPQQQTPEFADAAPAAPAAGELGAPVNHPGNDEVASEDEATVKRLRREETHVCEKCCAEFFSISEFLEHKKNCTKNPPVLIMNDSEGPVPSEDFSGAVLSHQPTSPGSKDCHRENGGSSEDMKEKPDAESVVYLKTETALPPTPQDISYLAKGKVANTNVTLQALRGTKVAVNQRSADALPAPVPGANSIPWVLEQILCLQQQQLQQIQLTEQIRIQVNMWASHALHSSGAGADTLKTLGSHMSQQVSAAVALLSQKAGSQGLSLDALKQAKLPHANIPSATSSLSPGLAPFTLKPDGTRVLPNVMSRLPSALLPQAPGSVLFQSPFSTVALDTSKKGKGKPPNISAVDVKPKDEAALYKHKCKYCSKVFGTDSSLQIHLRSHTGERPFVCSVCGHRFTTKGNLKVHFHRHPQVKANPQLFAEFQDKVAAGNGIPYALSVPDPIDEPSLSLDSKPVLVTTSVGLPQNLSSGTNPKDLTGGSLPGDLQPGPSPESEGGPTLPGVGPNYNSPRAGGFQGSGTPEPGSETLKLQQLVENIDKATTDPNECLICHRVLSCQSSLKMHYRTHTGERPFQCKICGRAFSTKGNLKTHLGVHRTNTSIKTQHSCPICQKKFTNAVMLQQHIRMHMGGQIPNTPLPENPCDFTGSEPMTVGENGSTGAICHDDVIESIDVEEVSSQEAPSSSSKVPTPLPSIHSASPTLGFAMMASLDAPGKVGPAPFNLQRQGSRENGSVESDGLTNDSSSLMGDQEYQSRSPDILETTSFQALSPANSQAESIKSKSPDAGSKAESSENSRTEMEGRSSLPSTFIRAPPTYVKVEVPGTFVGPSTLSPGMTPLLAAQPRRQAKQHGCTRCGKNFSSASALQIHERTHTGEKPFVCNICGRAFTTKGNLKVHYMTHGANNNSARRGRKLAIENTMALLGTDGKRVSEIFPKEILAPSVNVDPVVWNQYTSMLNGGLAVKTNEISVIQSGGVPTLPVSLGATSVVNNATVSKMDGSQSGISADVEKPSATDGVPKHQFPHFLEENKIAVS
T1 sequence (Q96SW2 whole entry): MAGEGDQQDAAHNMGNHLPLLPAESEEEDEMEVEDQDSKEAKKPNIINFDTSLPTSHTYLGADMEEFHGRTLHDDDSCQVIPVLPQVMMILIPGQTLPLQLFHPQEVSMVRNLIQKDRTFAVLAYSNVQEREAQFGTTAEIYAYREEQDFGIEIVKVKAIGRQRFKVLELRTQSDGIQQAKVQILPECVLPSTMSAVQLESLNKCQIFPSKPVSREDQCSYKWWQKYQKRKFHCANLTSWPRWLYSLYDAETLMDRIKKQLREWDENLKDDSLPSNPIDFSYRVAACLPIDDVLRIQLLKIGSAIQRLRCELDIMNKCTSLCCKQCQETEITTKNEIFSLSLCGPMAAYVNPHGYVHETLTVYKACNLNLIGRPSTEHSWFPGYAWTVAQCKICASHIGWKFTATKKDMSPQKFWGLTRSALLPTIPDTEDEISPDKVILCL
T1 sequence (Q16531 2-1140 partner limits assumed): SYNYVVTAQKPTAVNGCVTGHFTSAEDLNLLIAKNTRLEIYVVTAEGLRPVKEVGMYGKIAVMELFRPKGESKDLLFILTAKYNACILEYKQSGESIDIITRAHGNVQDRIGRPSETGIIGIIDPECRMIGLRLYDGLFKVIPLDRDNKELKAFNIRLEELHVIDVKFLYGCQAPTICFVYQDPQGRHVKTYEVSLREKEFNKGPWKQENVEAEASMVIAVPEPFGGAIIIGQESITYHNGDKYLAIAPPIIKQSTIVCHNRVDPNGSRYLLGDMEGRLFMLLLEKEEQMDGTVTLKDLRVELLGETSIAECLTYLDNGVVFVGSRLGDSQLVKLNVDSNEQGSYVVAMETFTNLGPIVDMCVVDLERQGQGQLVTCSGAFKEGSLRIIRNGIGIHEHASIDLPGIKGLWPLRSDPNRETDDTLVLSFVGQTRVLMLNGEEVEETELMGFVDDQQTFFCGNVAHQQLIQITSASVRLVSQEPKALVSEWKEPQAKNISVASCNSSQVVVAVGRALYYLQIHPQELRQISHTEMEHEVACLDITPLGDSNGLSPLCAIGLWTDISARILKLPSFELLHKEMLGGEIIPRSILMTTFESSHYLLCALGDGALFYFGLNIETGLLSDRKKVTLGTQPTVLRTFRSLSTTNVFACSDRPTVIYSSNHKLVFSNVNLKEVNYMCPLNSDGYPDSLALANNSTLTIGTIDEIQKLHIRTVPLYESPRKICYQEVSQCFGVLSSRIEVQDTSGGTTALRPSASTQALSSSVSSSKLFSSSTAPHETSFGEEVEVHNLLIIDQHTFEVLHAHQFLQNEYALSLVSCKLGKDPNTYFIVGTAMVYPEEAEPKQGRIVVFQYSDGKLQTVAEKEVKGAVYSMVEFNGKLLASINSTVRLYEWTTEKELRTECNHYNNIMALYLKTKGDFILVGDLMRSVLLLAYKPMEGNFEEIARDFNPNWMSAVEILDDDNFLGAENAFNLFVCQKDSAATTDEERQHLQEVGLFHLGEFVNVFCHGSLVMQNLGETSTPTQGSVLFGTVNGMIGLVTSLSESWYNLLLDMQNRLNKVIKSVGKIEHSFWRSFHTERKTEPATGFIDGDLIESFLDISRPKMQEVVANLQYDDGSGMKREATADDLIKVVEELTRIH

Structure (SMILES): O=C1CC[C@H](N2C(=O)c3cccc4c(Cc5ccc(CN6CCOCC6)cc5)ccc2c34)C(=O)N1 (single isomer, unassigned) [Compound 1]
- degradation of SALL4 [1]: more than 85%
- Log2 vs Vehicle, AAAS ([2]; 0.1 nM for 48 hr): 0.043
- Log2 vs Vehicle, ABCE1 ([2]; 0.1 nM for 48 hr): −0.112
- Log2 vs Vehicle, ADAR ([2]; 0.1 nM for 48 hr): 0.065
- Log2 vs Vehicle, ARIHI ([2]; 0.1 nM for 48 hr): 0.023
- Log2 vs Vehicle, B2M ([2]; 0.1 nM for 48 hr): −0.048
- Log2 vs Vehicle, BST2 ([2]; 0.1 nM for 48 hr): 0.241
- Log2 vs Vehicle, CAMK2A ([2]; 0.1 nM for 48 hr): −0.697
- Log2 vs Vehicle, CAMK2B ([2]; 0.1 nM for 48 hr): 0.054
- Log2 vs Vehicle, CAMK2D ([2]; 0.1 nM for 48 hr): 0.038
- Log2 vs Vehicle, CAMK2G ([2]; 0.1 nM for 48 hr): −0.054
- Log2 vs Vehicle, CD44 ([2]; 0.1 nM for 48 hr): −0.377
- Log2 vs Vehicle, CIITA ([2]; 0.1 nM for 48 hr): −0.076
- Log2 vs Vehicle, DDX58 ([2]; 0.1 nM for 48 hr): 0.455
- Log2 vs Vehicle, EIF2AK2 ([2]; 0.1 nM for 48 hr): 0.527
- Log2 vs Vehicle, EIF4A1 ([2]; 0.1 nM for 48 hr): 0.13
- Log2 vs Vehicle, EIF4A2 ([2]; 0.1 nM for 48 hr): 0.08
- Log2 vs Vehicle, EIF4A3 ([2]; 0.1 nM for 48 hr): 0.079
- Log2 vs Vehicle, EIF4E2 ([2]; 0.1 nM for 48 hr): 0.179
- Log2 vs Vehicle, EIF4E3 ([2]; 0.1 nM for 48 hr): 0.208
- Log2 vs Vehicle, EIF4G1 ([2]; 0.1 nM for 48 hr): −0.048
- Log2 vs Vehicle, EIF4G2 ([2]; 0.1 nM for 48 hr): −0.071
- Log2 vs Vehicle, EIF4G3 ([2]; 0.1 nM for 48 hr): −0.108
- Log2 vs Vehicle, FLNA ([2]; 0.1 nM for 48 hr): 1.179
- Log2 vs Vehicle, FLNB ([2]; 0.1 nM for 48 hr): 0.234
- Log2 vs Vehicle, GBP1 ([2]; 0.1 nM for 48 hr): 0.343
- Log2 vs Vehicle, GBP2 ([2]; 0.1 nM for 48 hr): −0.269
- Log2 vs Vehicle, GBP4 ([2]; 0.1 nM for 48 hr): 0.388
- Log2 vs Vehicle, HERC5 ([2]; 0.1 nM for 48 hr): −0.149
- Log2 vs Vehicle, HLA-A ([2]; 0.1 nM for 48 hr): −0.128
- Log2 vs Vehicle, HLA-B ([2]; 0.1 nM for 48 hr): 0.066
- Log2 vs Vehicle, HLA-C ([2]; 0.1 nM for 48 hr): −0.065
- Log2 vs Vehicle, HLA-DPA1 ([2]; 0.1 nM for 48 hr): −0.139
- Log2 vs Vehicle, HLA-DPB1 ([2]; 0.1 nM for 48 hr): −0.023
- Log2 vs Vehicle, HLA-DQA2 ([2]; 0.1 nM for 48 hr): −0.144
- Log2 vs Vehicle, HLA-DQB1 ([2]; 0.1 nM for 48 hr): 0.055
- Log2 vs Vehicle, HLA-DRA ([2]; 0.1 nM for 48 hr): −0.133
- Log2 vs Vehicle, HLA-DRB1 ([2]; 0.1 nM for 48 hr): −0.1
- Log2 vs Vehicle, HLA-E ([2]; 0.1 nM for 48 hr): −0.167
- Log2 vs Vehicle, HLA-F ([2]; 0.1 nM for 48 hr): 0.408
- Log2 vs Vehicle, ICAM1 ([2]; 0.1 nM for 48 hr): 0.31
- Log2 vs Vehicle, IFI30 ([2]; 0.1 nM for 48 hr): 0.217
- Log2 vs Vehicle, IFI35 ([2]; 0.1 nM for 48 hr): 0.153
- Log2 vs Vehicle, IFIT2 ([2]; 0.1 nM for 48 hr): −0.186
- Log2 vs Vehicle, IFIT3 ([2]; 0.1 nM for 48 hr): 0.736
- Log2 vs Vehicle, IR.F9 ([2]; 0.1 nM for 48 hr): 0.535
- Log2 vs Vehicle, IRF1 ([2]; 0.1 nM for 48 hr): 0.147
- Log2 vs Vehicle, IRF2 ([2]; 0.1 nM for 48 hr): −0.265
- Log2 vs Vehicle, IRF3 ([2]; 0.1 nM for 48 hr): 0.114
- Log2 vs Vehicle, IRF4 ([2]; 0.1 nM for 48 hr): −0.452
- Log2 vs Vehicle, IRF5 ([2]; 0.1 nM for 48 hr): 0.192
- Log2 vs Vehicle, IRF7 ([2]; 0.1 nM for 48 hr): 0.264
- Log2 vs Vehicle, ISG15 ([2]; 0.1 nM for 48 hr): 0.241
- Log2 vs Vehicle, ISG20 ([2]; 0.1 nM for 48 hr): −0.168
- Log2 vs Vehicle, J A KI ([2]; 0.1 nM for 48 hr): 0.036
- Log2 vs Vehicle, KPNA1 ([2]; 0.1 nM for 48 hr): 0.045
- Log2 vs Vehicle, KPNA2 ([2]; 0.1 nM for 48 hr): 0.058
- Log2 vs Vehicle, KPNA3 ([2]; 0.1 nM for 48 hr): 0
- Log2 vs Vehicle, KPNA4 ([2]; 0.1 nM for 48 hr): 0.075
- Log2 vs Vehicle, KPNB1 ([2]; 0.1 nM for 48 hr): 0.038
- Log2 vs Vehicle, MAPK3 ([2]; 0.1 nM for 48 hr): −0.042
- Log2 vs Vehicle, MT2A ([2]; 0.1 nM for 48 hr): −0.297
- Log2 vs Vehicle, MX1 ([2]; 0.1 nM for 48 hr): 1.715
- Log2 vs Vehicle, MX2 ([2]; 0.1 nM for 48 hr): 0.83
- Log2 vs Vehicle, NCAM1 ([2]; 0.1 nM for 48 hr): −0.127
- Log2 vs Vehicle, NDC1 ([2]; 0.1 nM for 48 hr): −0.063
- Log2 vs Vehicle, NEDD4 ([2]; 0.1 nM for 48 hr): 0.375
- Log2 vs Vehicle, NUP35 ([2]; 0.1 nM for 48 hr): −0.023
- Log2 vs Vehicle, NUP37 ([2]; 0.1 nM for 48 hr): −0.009
- Log2 vs Vehicle, NUP43 ([2]; 0.1 nM for 48 hr): −0.042
- Log2 vs Vehicle, NUP50 ([2]; 0.1 nM for 48 hr): −0.009
- Log2 vs Vehicle, NUP54 ([2]; 0.1 nM for 48 hr): 0.014
- Log2 vs Vehicle, NUP62 ([2]; 0.1 nM for 48 hr): −0.019
- Log2 vs Vehicle, NUP85 ([2]; 0.1 nM for 48 hr): −0.05
- Log2 vs Vehicle, NUP88 ([2]; 0.1 nM for 48 hr): 0.031
- Log2 vs Vehicle, NUP93 ([2]; 0.1 nM for 48 hr): 0.029
- Log2 vs Vehicle, NUP107 ([2]; 0.1 nM for 48 hr): 0.033
- Log2 vs Vehicle, NUP133 ([2]; 0.1 nM for 48 hr): −0.019
- Log2 vs Vehicle, NUP153 ([2]; 0.1 nM for 48 hr): −0.013
- Log2 vs Vehicle, NUP155 ([2]; 0.1 nM for 48 hr): 0.001
- Log2 vs Vehicle, NUP160 ([2]; 0.1 nM for 48 hr): 0.026
- Log2 vs Vehicle, NUP188 ([2]; 0.1 nM for 48 hr): 0.029
- Log2 vs Vehicle, NUP205 ([2]; 0.1 nM for 48 hr): −0.001
- Log2 vs Vehicle, NUP210 ([2]; 0.1 nM for 48 hr): 0.045
- Log2 vs Vehicle, NUP214 ([2]; 0.1 nM for 48 hr): −0.08
- Log2 vs Vehicle, NUPL2 ([2]; 0.1 nM for 48 hr): 0.073
- Log2 vs Vehicle, OAS2 ([2]; 0.1 nM for 48 hr): 0.478
- Log2 vs Vehicle, OAS3 ([2]; 0.1 nM for 48 hr): 0.884
- Log2 vs Vehicle, OASL ([2]; 0.1 nM for 48 hr): 0.111
- Log2 vs Vehicle, P0M121 ([2]; 0.1 nM for 48 hr): −0.05
- Log2 vs Vehicle, P0M121C ([2]; 0.1 nM for 48 hr): −0.039
- Log2 vs Vehicle, PDE12 ([2]; 0.1 nM for 48 hr): 0.013
- Log2 vs Vehicle, PIAS1 ([2]; 0.1 nM for 48 hr): −0.114
- Log2 vs Vehicle, PINI ([2]; 0.1 nM for 48 hr): 0.05
- Log2 vs Vehicle, PLCG1 ([2]; 0.1 nM for 48 hr): 0.052
- Log2 vs Vehicle, PML ([2]; 0.1 nM for 48 hr): 0.176
- Log2 vs Vehicle, PPM1B ([2]; 0.1 nM for 48 hr): −0.001
- Log2 vs Vehicle, PRKCD ([2]; 0.1 nM for 48 hr): 0.506
- Log2 vs Vehicle, PSMB8 ([2]; 0.1 nM for 48 hr): 0.021
- Log2 vs Vehicle, PTPN1 ([2]; 0.1 nM for 48 hr): 0.009
- Log2 vs Vehicle, PTPN6 ([2]; 0.1 nM for 48 hr): 0.402
- Log2 vs Vehicle, PTPN11 ([2]; 0.1 nM for 48 hr): 0.001
- Log2 vs Vehicle, RAE1 ([2]; 0.1 nM for 48 hr): −0.034
- Log2 vs Vehicle, RANBP2 ([2]; 0.1 nM for 48 hr): −0.044
- Log2 vs Vehicle, RNASEL ([2]; 0.1 nM for 48 hr): −0.218
- Log2 vs Vehicle, RPS27A ([2]; 0.1 nM for 48 hr): −0.054
- Log2 vs Vehicle, SAMHD1 ([2]; 0.1 nM for 48 hr): 0.128
- Log2 vs Vehicle, SP100 ([2]; 0.1 nM for 48 hr): −0.028
- Log2 vs Vehicle, STAT1 ([2]; 0.1 nM for 48 hr): 0.218
- Log2 vs Vehicle, STAT2 ([2]; 0.1 nM for 48 hr): 0.271
- Log2 vs Vehicle, TPR ([2]; 0.1 nM for 48 hr): −0.053
- Log2 vs Vehicle, TRIM5 ([2]; 0.1 nM for 48 hr): 0.107
- Log2 vs Vehicle, TRIM14 ([2]; 0.1 nM for 48 hr): 0.183
- Log2 vs Vehicle, TRIM21 ([2]; 0.1 nM for 48 hr): 0.175
- Log2 vs Vehicle, TRIM22 ([2]; 0.1 nM for 48 hr): 0.331
- Log2 vs Vehicle, TRIM25 ([2]; 0.1 nM for 48 hr): 0.161
- Log2 vs Vehicle, TRIM26 ([2]; 0.1 nM for 48 hr): 0.019
- Log2 vs Vehicle, TRIM35 ([2]; 0.1 nM for 48 hr): 0.144
- Log2 vs Vehicle, TRIM38 ([2]; 0.1 nM for 48 hr): 0.119
- Log2 vs Vehicle, TYK2 ([2]; 0.1 nM for 48 hr): −0.039
- Log2 vs Vehicle, UBA7 ([2]; 0.1 nM for 48 hr): 0.366
- Log2 vs Vehicle, UBE2E1 ([2]; 0.1 nM for 48 hr): −0.218
- Log2 vs Vehicle, UBE2L6 ([2]; 0.1 nM for 48 hr): 0.13
- Log2 vs Vehicle, UBE2N ([2]; 0.1 nM for 48 hr): 0.02
- Log2 vs Vehicle, VCAM1 ([2]; 0.1 nM for 48 hr): −0.744
- network impacted (gene ontology) ([2]; 48 hours after oral 100 μg/kg): Interferon (IFN) signaling was the most prominent network impacted
- Log2 vs Vehicle, 0AS1 ([2]; for 48 hr): 1.414
- IC50 [3]: 0.583 nM
- IC50 [4]: 0.058 nM
- off-target inhibition [5]: no targets inhibited >50%
- IC50 [6]: 0.03 nM
